This note sets out measurements from patent US20080317723A1, “LYMPHATIC ENDOTHELIAL CELLS MATERIALS AND METHODS” (VEGENICS LIMITED, priority 2001, published 2008).

The test system of assay [1] is VEGFR-3 expressing lymphatic endothelial cells. As to the kind of experiment: Culture and proliferation (PCNA) of isolated VEGFR-3 positive lymphatic endothelial cells. In kind it is cell-based, human. The conditions noted are these: complete medium with 5% serum supplemented with VEGF 10 ng/ml or VEGF-C 100 ng/ml. How it is done:
In order to compare the effects of the VEGFs on the survival of lymphatic versus blood vascular endothelial cells, specific antibodies and magnetic microbeads were used to isolate and to culture the VEGFR-3 positive and negative cells. Briefly, in this protocol, three separate sets of VEGFR-3 expressing lymphatic endothelial cells were cultured: a first set was cultured in complete medium containing 5% serum, the second set was cultured in complete medium containing 5% serum and supplemented with VEGF (10 ng/ml,) and the third set was cultured in complete medium containing 5% serum supplemented with VEGF-C (100 ng/ml). The VEGFR-3 positive cells were grown for five days after sorting in serum or supplemented with VEGFC and then stained for podoplanin and proliferating cell nuclear antigen (PCNA). The nuclei were stained with the Hoechst fluorochrome. If supplemented with VEGF-C or VEGF, the cells were stained for PCNA. Immunofluorescence double-staining of non-sorted cells or VEGFR-3 negative and VEGFR-3 positive cell populations with antibodies against podoplanin or VEGFR-3 also was performed.

For the next assay, the target named is T1, hVEGFR-3 (Homo sapiens, UniProt P35916).
T1 construct: Ig (immunoglobulin fusion partner); made in house
T1 sequence (P35916 25-775 limits assumed): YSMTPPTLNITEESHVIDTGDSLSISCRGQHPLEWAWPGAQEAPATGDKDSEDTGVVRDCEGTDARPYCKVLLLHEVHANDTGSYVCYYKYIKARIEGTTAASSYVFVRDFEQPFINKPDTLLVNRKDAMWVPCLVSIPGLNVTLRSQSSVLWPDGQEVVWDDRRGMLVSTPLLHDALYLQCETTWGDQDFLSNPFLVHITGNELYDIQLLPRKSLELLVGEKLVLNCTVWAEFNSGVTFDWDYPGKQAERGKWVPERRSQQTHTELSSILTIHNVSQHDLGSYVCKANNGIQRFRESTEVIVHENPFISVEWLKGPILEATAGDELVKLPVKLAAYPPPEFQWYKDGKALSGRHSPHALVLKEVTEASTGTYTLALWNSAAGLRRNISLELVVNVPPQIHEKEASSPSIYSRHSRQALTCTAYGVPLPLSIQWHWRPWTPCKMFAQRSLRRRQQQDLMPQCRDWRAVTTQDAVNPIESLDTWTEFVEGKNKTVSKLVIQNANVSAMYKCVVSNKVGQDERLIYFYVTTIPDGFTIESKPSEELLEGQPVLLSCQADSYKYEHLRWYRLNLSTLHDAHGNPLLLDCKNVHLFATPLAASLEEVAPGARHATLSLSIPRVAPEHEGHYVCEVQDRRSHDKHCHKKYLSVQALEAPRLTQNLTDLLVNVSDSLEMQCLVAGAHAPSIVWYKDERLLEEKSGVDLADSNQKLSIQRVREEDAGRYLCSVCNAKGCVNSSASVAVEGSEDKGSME
As to the kind of experiment: Biosensor (BIAcore) analysis of ligand binding to immobilized VEGFR-3. As to conditions: hVEGFR-3 bivalent immunoglobulin fusion protein immobilized; global fitting, 1:1 Langmuirian model with mass transfer. On the procedure: Biosensor Analysis. All preparations were analysed for homogeneity and buffer exchanged by micropreparative size exclusion HPLC using a Superose 12 (3.2/30) column installed in a SMART system (Amersham Pharmacia Biotech, Uppsala, Sweden) immediately prior to use (Nice and Catimel, Bioessays, 21:339-352, 1999). The concentrations of VEGF-C and VEGF-D were determined by absorbance at 280 nm using E280 1% 1 cm of 0-65. Receptor domains were coupled to the carboxymethylated dextran layer of a CM5 sensor chip using standard amine coupling chemistry (Nice and Catimel, Bioessays, 21:339-352, 1999) for analysis of ligad binding using a BIAcore 2000 optical biosensor (BIAcore, Uppsala, Sweden). The levels immobilized were 3,000 RU and 7,000 RU for VEGFR-2 and VEGFR-3, respectively. […] The apparent binding affinities of VEGF-C and VEGF-C156S to receptor domains were determined by analysis of the initial dissociation phase to obtain the kd, which was then used to constrain a global analysis of the association region of the curves, assuming a 1:1 Langmuirian model. Data were analysed using BLAevaluation 3.0 (BIAcore, Uppsala, Sweden) as described previously (Catimel et al., J. Chromatogr., 776:15-30, 1997). […]

In the case of VEGF, the “proliferation of isolated podoplanin positive cells” value in assay [1] was “most of the podoplanin positive cells proliferated readily”.

B1: VEGF-C156S: VEGFR-3 specific mutant form of VEGF-C, cysteine 156 changed into serine; recombinant human (Thr103 to Ile225) (protein, UniProt P49767 103-225, looked up, variant C156S)
chain: TEETIKFAAAHYNTEILKSIDNEWRKTQCMPREVCIDVGKEFGVATNTFFKPPSVSVYRCGGCCNSEGLQCMNTSTSYLSKTLFEITVPLSQGPKPVTISFANHTSCRCMSKLDVYRQVHSII
As to B1, in the assay with hVEGFR-3, the Ka turned out to be 3500 M⁻¹ s⁻¹.
